Experiments:
[1] = target: Boletopsis leucomelas lectin (BLL); assay: Frontal affinity chromatography (FAC) on immobilized BLL lectin column; type: binding; conditions: for affinity of BLL for pNP glycosides (in words): pNP-sugar chain 5 μM, FIG. 3(A) right
Protocol: (§1) It is preferable to use the frontal affinity chromatography (FAC) method for measuring the binding constant between lectin and sugar chain.
(§2) […] each of pyridylaminated sugar chains (PA-sugar chains) is continuously poured into two buffered lectin columns at a flow rate of 0.125 ml/min. The PA-sugar chain has been diluted to the concentration (2.5 nM) which is sufficiently lower than the dissociation constant (Kd) of a lectin in a buffer solution for analysis (10 mM Tris-HCl buffer solution (pH 7.4) containing 0.8% NaCl). Elution of the PA-sugar chain from the column is detected with use of a fluorescence detector (with exciting wavelength/fluorescence wavelength: 310 nm/380 nm).
(§3) Then, the binding constant (Ka) between the sugar chain and the lectin is determined from V-V0 and Bt based on the FAC reference equation.
(§4) BLL was dissolved in 0.2M NaHCO3 buffer solution (pH 8.3) containing 0.5M NaCl, and bound with NHS-activated Sepharose (GE Healthcare Bioscience, Uppsala, Sweden) according to the operation manual of the manufacturer. The lectin-Sepharose was suspended in 10 mM Tris-HCl buffer solution (pH 7.4, TBS buffer solution) containing 0.8% NaCl, and filled in a miniature column (+2 mm×10 mm, 31.4 μl). A GSL-II lectin column was prepared in a similar manner.
(§5) A frontal affinity chromatography was carried out with use of an FAC automated analysis system (FAC-1, Shimadzu Corporation). More specifically, the lectin column prepared as described above was inserted in a stainless holder and connected to the FAC-1 system.
(§6) The flow rate and column temperature were kept at 0.125 ml/min and 25 °C, respectively. […]
(§7) Eluates of pNP-sugar chain and PA-sugar chain were monitored by measuring UV (280 nm) and fluorescence (with the exciting wavelength 310 nm and the fluorescence wave length 380 nm). A front end eluate (i.e., V-V0) was measured with respect to a standard oligosaccharide (PA-lactose). In addition, the dissociation constant (Kd) was determined from V-V0 and Bt based on the FAC reference equation. Note that the binding constant Ka is determined by the equation Ka=1/Kd.
(§8) Analysis of the concentration dependency was carried out to measure the effective ligand concentration Bt. […] Next, V-V0 (the delay of the eluted front end) was calculated in accordance with the method developed by Arata (“Application of reinforced frontal affinity chromatography and advanced processing procedure to the study of the binding property of a Caenorhabditis elegans galectin”, J Chromatogr A. 905, 337-43). A Hofstee-type plot ((V-V0) vs. (V-V0) [A]0) was created, and Bt and Kd were respectively determined from the intercept and the slope of the approximate curve. […]

[2] = target: Griffonia simplicifolia lectin II (GSL-II) (Griffonia simplicifolia, UniProt Q41263); assay: Frontal affinity chromatography (FAC) on immobilized GSL-II lectin column; type: binding; conditions: for affinity of GSL-II for pNP glycosides (in words): pNP-sugar chain 5 μM, FIG. 3(A) left
Griffonia simplicifolia lectin II (GSL-II), sequence (Q41263 entry or part of it): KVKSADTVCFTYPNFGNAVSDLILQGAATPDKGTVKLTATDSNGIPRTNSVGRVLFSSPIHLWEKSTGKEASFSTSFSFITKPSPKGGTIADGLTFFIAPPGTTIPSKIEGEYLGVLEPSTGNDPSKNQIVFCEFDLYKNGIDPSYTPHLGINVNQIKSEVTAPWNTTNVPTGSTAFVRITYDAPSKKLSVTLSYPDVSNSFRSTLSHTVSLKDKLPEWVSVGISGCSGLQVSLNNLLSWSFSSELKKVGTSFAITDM
Protocol: as §1, §2, §3, §4, §5, §6, §7, §8

CC(=O)N[C@H]1[C@@H](Oc2ccc([N+](=O)[O-])cc2)O[C@H](CO)[C@H](O)[C@@H]1O[C@@H]1O[C@H](CO)[C@H](O)[C@H](O)[C@H]1O [Galβ1-3GalNAcα-pNP, Galβ1-3 GalNAcα-pNP]
Ka ([1]; pNP derivatives (5 μM), FAC, 25 C, TBS pH 7.4): 90000 M⁻¹ | affinity of BLL for pNP glycosides (in words) [1]: remarkable affinity

CC(=O)N[C@H]1[C@@H](Oc2ccc([N+](=O)[O-])cc2)O[C@H](CO)[C@@H](O)[C@@H]1O [GlcNAcα-pNP]
affinity of BLL for pNP glycosides (in words) [1]: did not show remarkable affinity | Kd [2]: 7.14 µM | affinity of GSL-II for pNP glycosides (in words) [2]: strongest affinity

CC(=O)N[C@H]1[C@H](Oc2ccc([N+](=O)[O-])cc2)O[C@H](CO)[C@@H](O)[C@@H]1O [GlcNAcβ-pNP]
affinity of BLL for pNP glycosides (in words) [1]: did not show remarkable affinity | binding relative to that of the other anomer ([2]; GSL-II, pNP glycosides): 1/7 | affinity of GSL-II for pNP glycosides (in words) [2]: remarkable affinity

Source: patent US20090117599A1, “METHOD OF DETECTING SUGAR CHAINS HAVING GlcNAc TRANSFERRED BY GnT-V” (priority 2005, published 2009)
